Results reported in patent publication US20220062371A1, “LIGAND-DRUG-CONJUGATES AS SUBSTRATES FOR SELECTIVE CLEAVAGE BY THE EXOPEPTIDASE ACTIVITY OF CATHEPSIN B” (DEBIOPHARM RESEARCH & MANUFACTURING S.A., priority 2017, published 2022).
Read-outs that look alike come from different tables or passages of the source. Positions of bridges follow the written chain, without caps; N, C: chain ends. Non-standard residues stand in square brackets, D forms with d. Residues, ends and D or L forms follow the SMILES beside them. Groups on a side chain read outwards from the residue. Chains are numbered I, II in the order given. *: point of attachment. DM1Mal(CH2)2CO = COc1cc2cc(c1Cl)N(C)C(=O)C[C@H](OC(=O)[C@H](C)N(C)C(=O)CCSC1CC(=O)N(CCC(=O)*)C1=O)[C@]1(C)O[C@H]1[C@H](C)[C@@H]1C[C@@](O)(NC(=O)O1)[C@H](OC)/C=C/C=C(\C)C2; Camptothecin(20S-OCO) = CC[C@@]1(OC(=O)*)C(=O)OCc2c1cc1n(c2=O)Cc2cc3ccccc3nc2-1; X1 = CC[C@@]1(O*)C(=O)OCc2c1cc1n(c2=O)Cc2cc3ccccc3nc2-1; X2 = CC(=O)N[C@@H](CSC1CC(=O)N(CCC(=O)*)C1=O)C(=O)O; Dolaproine = CO[C@@H]([C@@H]1CCCN1)[C@@H](C)C(=O)O; Dil = CC[C@H](C)[C@H](NC)[C@@H](CC(=O)O)OC; NMe2Val = CC(C)[C@@H](C(=O)*)N(C)C; PEG5 = NCCOCCOCCOCCOCCOCCC(=O)O; Cit = NC(=O)NCCC[C@H](N)C(=O)O; PEG4 = NCCOCCOCCOCCOCCC(=O)O; Dap = NC[C@H](N)C(=O)O; Sar = CNCC(=O)O

Molecular target: T1, recombinant human Cathepsin B (Homo sapiens, UniProt P07858)
T1 construct: purchased R&D Systems (Bio-Techne AG) 953-CY-010
Assay: Recombinant human Cathepsin B-induced cleavage (in vitro enzymatic cleavage assay, UHPLC-MS/MS)
Format: biochemical
Settings: for half-life at 10 μM: human; for Ratio (T1/2 Compound/T1/2 Reference): reference Cys-MC-Val-Cit-PABC-MMAF; for cleavage rate compared to reference PABC compound (times faster): versus Cys-MC-Val-Cit-PABC-MMAF
Protocol: Cat B-induced cleavage of the compounds of the present invention was evaluated according to the in vitro enzymatic cleavage assay using recombinant human Cathepsin B and UHPLC-MS/MS analysis as described below.
Reference compounds Cys-MC-Val-Cit-PABC-MMAF and MMAF were used as positive controls.
The in vitro enzymatic assay was conducted at 37° C. with the test compounds at a concentration of 10 μM (2.5 μM when the test compound is an antibody-drug conjugate) in the presence of activated recombinant human Cathepsin B enzyme at 2 μg/mL in a 25 mM MES buffer pH 5.0. The enzymatic cleavage reaction was stopped for each defined time point by mixing an equal volume of acetonitrile+0.1% FA containing an internal standard (warfarine at 8 μM).
Analysis was conducted using a Waters Acquity UPLC System coupled to a Waters Xevo TQ triple quad mass spectrometer. UHPLC was conducted depending on the test compounds with a BEH C8 1.7 μm 100×2.1 mm or BEH C18 1.7 μm 50×2.1 mm or HSS T3 1.7 μm 50×2.1 mm columns heated at 45° C. or 50° C. and fitted with 2 μm insert filter pre-columns (available from Waters), and solvent systems A1 (H2O+0.1% FA) and B1 (acetonitrile+0.1% FA) at a flow rate of 0.6 mL/min and a 10-95% gradient of B1 over 1.9 min.
MS/MS was performed using electrospray ionization (ESI) interface in positive mode and specific MRM transitions for each tested compound.

[1] = pH 5, 10 μM test compound, Cathepsin B 2 μg/mL, 25 mM MES buffer pH 5.0, 37° C., read-out: T1/2 Compound
[2] = 10 μM test compound, Cathepsin B 2 μg/mL, 25 mM MES buffer pH 5.0, 37° C., read-out: T1/2 Compound
[3] = pH 5, text and figure legends, 10 μM test compound, read-out: t1/2 (Exo-Cat B-induced drug release study)

Row | Compound | half-life at 10 μM [1] | Ratio (T1/2 Compound/T1/2 Reference) | further results
1 | CC[C@@]1(OC(=O)OC[C@H](NC(=O)[C@H](CCCNC(=N)N)NC(=O)[C@H](Cc2ccccc2)NC(=O)CCOCCOCCOCCOCCOCCNC(=O)[C@@H](N)CCCNC(=N)N)C(=O)N[C@@H](Cc2ccccc2)C(=O)O)C(=O)OCc2c1cc1n(c2=O)Cc2cc3ccccc3nc2-1 [Compound 11, Arg-PEG4-Phe-Arg-Ser(CO-CPT)-Phe-OH] (H-R[PEG5]FRS(Camptothecin(20S-OCO))F-OH; N-terminus assumed) | 2.2 min | 0.2 | 
2 | CC[C@H](C)[C@@H]([C@@H](CC(=O)N1CCC[C@H]1[C@H](OC)[C@@H](C)C(=O)N[C@@H](Cc1ccccc1)C(=O)N[C@@H](CCCNC(N)=O)C(=O)N[C@@H](CCCCNC(=O)CCOCCOCCOCCOCCNC(=O)CCN1C(=O)CC(SC[C@H](NC(C)=O)C(=O)O)C1=O)C(=O)N[C@@H](Cc1ccccc1)C(=O)O)OC)N(C)C(=O)[C@@H](NC(=O)[C@H](C(C)C)N(C)C)C(C)C (stereo partly drawn) [Compound 19, AF-Cit-Lys(PEG4-Mal-Cys-Ac)-Phe-OH] (NMe2Val-V[Dil][Dolaproine]F[Cit]K([PEG4-X2])F-OH) | 1.1 min | 0.09 | 
3 | CC[C@H](C)[C@@H]([C@@H](CC(=O)N1CCC[C@H]1[C@H](OC)[C@@H](C)C(=O)N[C@@H](Cc1ccccc1)C(=O)N[C@@H](CCCNC(N)=O)C(=O)N[C@@H](CCCCNC(=O)CCN1C(=O)CC(SCCC(=O)N(C)[C@@H](C)C(=O)O[C@H]2CC(=O)N(C)c3cc(cc(OC)c3Cl)C/C(C)=C/C=C/[C@@H](OC)[C@@]3(O)C[C@H](OC(=O)N3)[C@@H](C)[C@@H]3O[C@@]23C)C1=O)C(=O)N[C@@H](Cc1ccccc1)C(=O)N[C@@H](CCCCNC(=O)CCOCCOCCOCCOCCNC(=O)CCN1C(=O)CC(SC[C@H](NC(C)=O)C(=O)O)C1=O)C(=O)N[C@@H](Cc1ccccc1)C(=O)O)OC)N(C)C(=O)[C@@H](NC(=O)[C@H](C(C)C)N(C)C)C(C)C (stereo partly drawn) [Compound 31, AF-Cit-Lys(Mal-DM1)-Phe-Lys(PEG4-Mal-Cys-Ac)-Phe-OH] (NMe2Val-V[Dil][Dolaproine]F[Cit]K(DM1Mal(CH2)2CO)FK([PEG4-X2])F-OH) |  | 0.08 | half-life at 10 μM [2]: 1.08 min; cleavage rate compared to reference PABC compound (times faster): more than 10 fold
4 | Arg-PEG4-Phe-Arg-[Glu(Sar-OCPT)-Phe]2-OH [Compound 17] |  |  | Cat B-induced cleavage, in words: rapidly released
5 | COc1cc2cc(c1Cl)N(C)C(=O)C[C@H](OC(=O)[C@H](C)N(C)C(=O)CCSC1CC(=O)N(C[C@H]3CC[C@H](C(=O)NCCCC[C@H](NC(=O)[C@H](CCCNC(N)=O)NC(=O)[C@H](Cc4ccccc4)NC(=O)CCOCCOCCOCCOCCOCCNC(=O)CN4C(=O)CC(SC[C@H](NC(C)=O)C(=O)O)C4=O)C(=O)N[C@@H](Cc4ccc(O)cc4)C(=O)O)CC3)C1=O)[C@]1(C)O[C@H]1[C@H](C)[C@@H]1C[C@@](O)(NC(=O)O1)[C@H](OC)/C=C/C=C(\C)C2 (stereo partly drawn) [Compound 27, Ac-Cys-Ma-PEG5-Phe-Cit-Lys(Mcc-DM1)-Tyr-OH] | 0.06 min | 0.005 | cleavage rate compared to reference PABC compound (times faster): ~2300 fold
6 | Arg-PEG4-Phe-Arg-Glu(Sar-OCPT)-Arg-Phe-Arg-OH [Compound 16] |  |  | Cat B-induced cleavage, in words: rapidly cleaved
7 | CC[C@@]1(OC(=O)NC[C@H](NC(=O)[C@H](CCCNC(=N)N)NC(=O)[C@H](Cc2ccccc2)NC(=O)CCOCCOCCOCCOCCOCCNC(=O)[C@@H](N)CCCNC(=N)N)C(=O)N[C@@H](Cc2ccccc2)C(=O)O)C(=O)OCc2c1cc1n(c2=O)Cc2cc3ccccc3nc2-1 [Compound 9, Arg-PEG4-Phe-Arg-Dap(CO-CPT)-Phe-OH] (H-R[PEG5]FR[Dap](Camptothecin(20S-OCO))F-OH; N-terminus assumed) | 4.5 min | 0.63 | 
8 | CC[C@@]1(OC(=O)CN(C)C(=O)CC[C@H](NC(=O)[C@H](CCCNC(=N)N)NC(=O)[C@H](Cc2ccccc2)NC(=O)CCOCCOCCOCCOCCOCCNC(=O)[C@@H](N)CCCNC(=N)N)C(=O)N[C@@H](Cc2ccccc2)C(=O)O)C(=O)OCc2c1cc1n(c2=O)Cc2cc3ccccc3nc2-1 [Compound 8, Arg-PEG4-Phe-Arg-Glu(Sar-OCPT)-Phe-OH] (H-R[PEG5]FRE([Sar-X1])F-OH; N-terminus assumed) | 2.2 min | 0.19 | Cat B-induced cleavage, in words: rapidly cleaved
9 | CC[C@H](C)[C@@H]([C@@H](CC(=O)N1CCC[C@H]1[C@H](OC)[C@@H](C)C(=O)N[C@@H](Cc1ccccc1)C(=O)NCCCC[C@H](NC(=O)[C@H](CCCCN)NC(=O)[C@H](Cc1ccccc1)NC(=O)CCOCCOCCOCCOCCNC(=O)CCN1C(=O)CC(SC[C@H](NC(C)=O)C(=O)O)C1=O)C(=O)N[C@@H](Cc1ccccc1)C(=O)O)OC)N(C)C(=O)[C@@H](NC(=O)[C@H](C(C)C)N(C)C)C(C)C (stereo partly drawn) [Compound 13, Ac-Cys-Mal-PEG4-Phe-Lys-Lys(AF)-Phe-OH] (I: {X2-PEG4}-FKKF-OH / II: NMe2Val-V[Dil][Dolaproine]F; amide I:3-II:C) | 1.6 min | 0.15 | half-life at 10 μM [3]: 1.62 min
10 | COc1cc2cc(c1Cl)N(C)C(=O)C[C@H](OC(=O)[C@H](C)N(C)C(=O)CCSC1CC(=O)N(CCC(=O)NCCCC[C@H](NC(=O)[C@H](CCCCN)NC(=O)[C@H](Cc3ccccc3)NC(=O)CCOCCOCCOCCOCCNC(=O)CCN3C(=O)CC(SC[C@H](NC(C)=O)C(=O)O)C3=O)C(=O)N[C@@H](Cc3ccccc3)C(=O)N[C@@H](Cc3ccccc3)C(=O)N[C@@H](CCCCN)C(=O)O)C1=O)[C@]1(C)O[C@H]1[C@H](C)[C@@H]1C[C@@](O)(NC(=O)O1)[C@H](OC)/C=C/C=C(\C)C2 (stereo partly drawn) [Compound 28, Ac-Cys-Mal-PEG4-Phe-Lys-Lys(Mal-DM1)-Phe-Phe-Lys-OH] ({X2-PEG4}-FKK(DM1Mal(CH2)2CO)FFK-OH) |  |  | half-life at 10 μM [2]: 0.3 min
11 | CC[C@H](C)[C@@H]([C@@H](CC(=O)N1CCC[C@H]1[C@H](OC)[C@@H](C)C(=O)N[C@@H](Cc1ccccc1)C(=O)N[C@@H](CCCNC(=N)N)C(=O)N[C@@H](Cc1ccccc1)C(=O)N[C@@H](CCCCNC(=O)CCOCCOCCOCCOCCNC(=O)CCN1C(=O)CC(SC[C@H](NC(C)=O)C(=O)O)C1=O)C(=O)O)OC)N(C)C(=O)[C@@H](NC(=O)[C@H](C(C)C)N(C)C)C(C)C (stereo partly drawn) [Compound 3, AF-Arg-Phe-Lys(PEG4-Mal-Cys-Ac)-OH] (NMe2Val-V[Dil][Dolaproine]FRFK([PEG4-X2])-OH) | 1.4 min | 0.11 | 
12 | COc1cc2cc(c1Cl)N(C)C(=O)C[C@H](OC(=O)[C@H](C)N(C)C(=O)CCSC1CC(=O)N(CCC(=O)NCCCC[C@H](NC(=O)[C@H](CCCCN)NC(=O)[C@H](Cc3ccccc3)NC(=O)CCOCCOCCOCCOCCNC(=O)CCN3C(=O)CC(SC[C@H](NC(C)=O)C(=O)O)C3=O)C(=O)N[C@@H](Cc3ccccc3)C(=O)O)C1=O)[C@]1(C)O[C@H]1[C@H](C)[C@@H]1C[C@@](O)(NC(=O)O1)[C@H](OC)/C=C/C=C(\C)C2 (stereo partly drawn) [Compound 12, Ac-Cys-Mal-PEG4-Phe-Lys-Lys(Mal-DM1)-Phe-OH] ({X2-PEG4}-FKK(DM1Mal(CH2)2CO)F-OH) | 1.5 min |  | half-life at 10 μM [3]: 1.53 min
